Where a name gives a salt, the structure may show the parent alone.
| Compound | melting point |
| --- | --- |
| O=C(OCc1cscn1)N1CCC(CCOc2ccc3ncccc3c2)CC1 (as salt: HCl) [No. 19, Thiazol-4-ylmethyl 4-[2-(quinolin-6-yloxy)ethyl]-piperidine-1-carboxylate] | 140 to 150 °C |
| O=C(OCc1cscn1)N1CCC(CCOc2ccc3cnccc3c2)CC1 (as salt: HCl) [No. 20, Thiazol-4-ylmethyl 4-[2-(isoquinolin-6-yloxy)ethyl]-piperidine-1-carboxylate] | 150 to 160 °C |
| COc1ccc2cc(OCC3CCN(C(=O)OCc4cscn4)C3)ccc2c1 (racemic) [No. 11, Thiazol-4-ylmethyl (+/−)-3-(6-methoxynaphth-2-yloxymethyl)pyrrolidine-1-carboxylate] | 128 to 130 °C |
| O=C(OCc1cscn1)N1CCC(COc2ccc(Cl)c(Cl)c2)C1 (racemic) [No. 13, Thiazol-4-ylmethyl (+/−)-3-(3,4-dichlorophenoxymethyl)pyrrolidine-1-carboxylate] | 78 to 80 °C |
| O=C(OCc1cscn1)N1CCC(COc2ccc(Cl)c3ccccc23)C1 (racemic) [No. 16, Thiazol-4-ylmethyl (+/−)-3-(4-chloronaphth-1-yloxymethyl)pyrrolidine-1-carboxylate] | 84 to 86 °C |
| O=C(OCc1cscn1)N1CCC(COc2ccc3ccccc3c2)C1 (racemic) [No. 17, Thiazol-4-ylmethyl 3-(naphth-2-yloxymethyl)pyrrolidine-1-carboxylate] | 90 to 92 °C |
| O=C(OCc1cscn1)N1CCC(COc2ccc(-c3ccc(F)cc3)cc2)C1 (racemic) [No. 22, Thiazol-4-ylmethyl 3-(4′-fluorobiphenyl-4-yloxymethyl)-pyrrolidine-1-carboxylate] | 115 to 117 °C |
| O=C(OCc1cscn1)N1CCC(COc2ccc3c(Cl)cccc3c2)C1 (racemic) [No. 23, Thiazol-4-ylmethyl (+/−)-3-(5-chloronaphth-2-yloxymethyl)pyrrolidine-1-carboxylate] | 89 to 91 °C |
| O=C(OCc1cscn1)N1CCC(COc2cccc(OC(F)(F)F)c2)C1 (racemic) [No. 24, Thiazol-4-ylmethyl (+/−)-3-(3-{trifluoromethoxy}-phenoxymethyl)pyrrolidine-1-carboxylate] | 54 to 56 °C |
| CC(C)(c1ccccc1)c1ccc(OCC2CCN(C(=O)OCc3cscn3)C2)cc1 (racemic) [No. 25, Thiazol-4-ylmethyl (+/−)-3-[4-(1-methyl-1-phenyl-ethyl)phenoxymethyl]pyrrolidine-1-carboxylate] | 76 to 78 °C |
| O=C(OCc1cscn1)N1CCC(COc2ccc3cnccc3c2)C1 (racemic) [No. 27, Thiazol-4-ylmethyl (+/−)-3-(isoquinolin-6-yloxymethyl)pyrrolidine-1-carboxylate] | 122 to 124 °C |
| O=C(OCc1cscn1)N1CCC(COc2ccc3cccnc3c2)C1 (racemic) [No. 28, Thiazol-4-ylmethyl (+/−)-3-(quinolin-7-yloxymethyl)-pyrrolidine-1-carboxylate] | 94 to 96 °C |
| O=C(OCc1cscn1)N1CCC(COc2ccc3ccncc3c2)C1 (racemic) [No. 29, Thiazol-4-ylmethyl (+/−)-3-(isoquinolin-7-yloxymethyl)pyrrolidine-1-carboxylate] | 121 to 123 °C |
| O=C(OCc1cscn1)N1CCC(COc2ccc(Cl)c(C(F)(F)F)c2)C1 (racemic) [No. 30, Thiazol-4-ylmethyl (+/−)-3-(4-chloro-3-{trifluoromethyl}phenoxymethyl)pyrrolidine-1-carboxylate] | 60 to 62 °C |
| O=C(OCc1cscn1)N1CCC(COc2ccc3c(F)cccc3c2)C1 (racemic) [No. 31, Thiazol-4-ylmethyl (+/−)-3-(5-fluoronaphth-2-yloxymethyl)pyrrolidine-1-carboxylate] | 76 to 78 °C |
| O=C(OCc1nccs1)N1CCC(COc2ccc(-c3ccc(F)cc3)cc2)C1 (racemic) [No. 197, Thiazol-2-ylmethyl (+/−)-3-(4′-fluorobiphenyl-4-yloxymethyl)pyrrolidine-1-carboxylate] | 81 to 83 °C |
| COc1ccc2cc(OCC3CCN(C(=O)OCc4cc(C(N)=O)no4)C3)ccc2c1 (racemic) [No. 201, 3-Carbamoylisoxazol-5-ylmethyl (+/−)-3-(6-methoxynaphth-2-yloxymethyl)pyrrolidine-1-carboxylate] | 193 to 195 °C |
| O=C(OCc1nccs1)N1CC[C@@H](COc2ccc3ccccc3c2)C1 (single isomer, unassigned) [No. 194] | 100 to 112 °C |
| O=C(OCc1nccs1)N1CC[C@H](COc2ccc3ccccc3c2)C1 (single isomer, unassigned) [No. 195] | 112 to 114 °C |
| O=C(OCc1cscn1)N1CCC(CCOc2ccc(Cl)cc2)CC1 [No. 5, Thiazol-4-ylmethyl 4-[2-(4-chlorophenoxy)ethyl]-piperidine-1-carboxylate] | 53 to 55 °C |
| O=C(OCc1cncs1)N1CCC(CCOc2ccc(F)cc2)CC1 [No. 6, Thiazol-5-ylmethyl 4-[2-(4-fluorophenoxy)ethyl]-piperidine-1-carboxylate] | 96 to 98 °C |
| O=C(OCc1cncs1)N1CCC(CCOc2ccc(Cl)cc2)CC1 [No. 7, Thiazol-5-ylmethyl 4-[2-(4-chlorophenoxy)ethyl]-piperidine-1-carboxylate] | 93 to 97 °C |
| O=C(OCc1cncs1)N1CCC(CCOc2ccc(C(F)(F)F)cc2)CC1 [No. 8, Thiazol-5-ylmethyl 4-[2-(4-{trifluoromethyl}phenoxy)-ethyl]piperidine-1-carboxylate] | 47 to 49 °C |
| COc1ccc2ccc(OCCC3CCN(C(=O)OCc4cscn4)CC3)cc2c1 [No. 9, Thiazol-4-ylmethyl 4-[2-(7-methoxynaphth-2-yloxy)ethyl]-piperidine-1-carboxylate] | 95 to 97 °C |
| N#Cc1ccc(OCCC2CCN(C(=O)OCc3cscn3)CC2)cc1 [No. 10, Thiazol-4-ylmethyl 4-[2-(4-cyanophenoxy)ethyl]-piperidine-1-carboxylate] | 108 to 110 °C |
| COc1ccc2cc(OCCC3CCN(C(=O)OCc4cscn4)CC3)ccc2c1 [No. 14, Thiazol-4-ylmethyl 4-[2-(6-methoxynaphth-2-yloxy)-ethyl]piperidine-1-carboxylate] | 100 to 102 °C |
| O=C(OCc1cscn1)N1CCC(CCOc2ccc3ccccc3c2)CC1 [No. 15, Thiazol-4-ylmethyl 4-[2-(naphth-2-yloxy)ethyl]-piperidine-1-carboxylate] | 88 to 90 °C |
| O=C(OCc1cscn1)N1CCC(CCOc2ccc(-c3ccc(F)cc3)cc2)CC1 [No. 18, Thiazol-4-ylmethyl 4-[2-(4′-fluorobiphenyl-4-yloxy)-ethyl]piperidine-1-carboxylate] | 62 to 64 °C |
| NC(=O)c1cc(COC(=O)N2CCC(CCOc3ccc(F)cc3)CC2)on1 [No. 198, 3-Carbamoylisoxazol-5-ylmethyl 4-[2-(4-fluorophenoxy)ethyl]piperidine-1-carboxylate] | 106 to 108 °C |
